From ChEMBL document CHEMBL1148299 (J Med Chem, 2004) come the findings set out here.

Data set [1] in a line: (§1) Compound was tested for the inhibition of HIV-1 301657 clinical isolate in PBMC cultures. The settings on record: Homo sapiens. The format is functional.
The nature of data set [2]: (§2) Compound was tested for the inhibition of HIV-1 JV1083 clinical isolate in PBMC cultures. The format is functional. The settings on record: Homo sapiens.
In data set [3] the target is T1, Muscarinic acetylcholine receptor M1 (Homo sapiens, UniProt P11229).
T1 sequence (P11229 whole entry): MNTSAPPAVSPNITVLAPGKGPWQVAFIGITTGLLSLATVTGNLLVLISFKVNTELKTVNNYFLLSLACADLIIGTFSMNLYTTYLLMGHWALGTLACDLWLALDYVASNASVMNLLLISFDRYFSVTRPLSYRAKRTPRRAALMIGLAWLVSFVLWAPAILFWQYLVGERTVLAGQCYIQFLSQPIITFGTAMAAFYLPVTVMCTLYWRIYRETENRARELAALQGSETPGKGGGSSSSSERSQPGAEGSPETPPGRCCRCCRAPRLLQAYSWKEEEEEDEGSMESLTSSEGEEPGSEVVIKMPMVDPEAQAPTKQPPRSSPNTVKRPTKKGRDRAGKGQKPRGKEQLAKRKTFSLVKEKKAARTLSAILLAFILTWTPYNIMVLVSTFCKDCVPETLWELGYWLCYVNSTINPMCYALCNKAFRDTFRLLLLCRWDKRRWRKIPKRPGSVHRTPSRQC
Put plainly: Antagonistic activity against muscarinic M1 receptor. The format is functional.

Data set [4] in a line: (§3) Compound was tested for the inhibition of HIV-1 ADA-M clinical isolate in PBMC cultures. The settings on record: Homo sapiens. The format is functional.
Data set [5] is described as follows: (§4) Compound was tested for the inhibition of HIV-1 JrFL clinical isolate in PBMC cultures. The class given is functional. As to conditions: Homo sapiens.
The target of data set [6] is Muscarinic acetylcholine receptor M3 (Homo sapiens, UniProt P20309). Put plainly: Antagonistic activity against muscarinic M3 receptor. The format is functional.
Chain of Muscarinic acetylcholine receptor M3 (P20309 whole entry): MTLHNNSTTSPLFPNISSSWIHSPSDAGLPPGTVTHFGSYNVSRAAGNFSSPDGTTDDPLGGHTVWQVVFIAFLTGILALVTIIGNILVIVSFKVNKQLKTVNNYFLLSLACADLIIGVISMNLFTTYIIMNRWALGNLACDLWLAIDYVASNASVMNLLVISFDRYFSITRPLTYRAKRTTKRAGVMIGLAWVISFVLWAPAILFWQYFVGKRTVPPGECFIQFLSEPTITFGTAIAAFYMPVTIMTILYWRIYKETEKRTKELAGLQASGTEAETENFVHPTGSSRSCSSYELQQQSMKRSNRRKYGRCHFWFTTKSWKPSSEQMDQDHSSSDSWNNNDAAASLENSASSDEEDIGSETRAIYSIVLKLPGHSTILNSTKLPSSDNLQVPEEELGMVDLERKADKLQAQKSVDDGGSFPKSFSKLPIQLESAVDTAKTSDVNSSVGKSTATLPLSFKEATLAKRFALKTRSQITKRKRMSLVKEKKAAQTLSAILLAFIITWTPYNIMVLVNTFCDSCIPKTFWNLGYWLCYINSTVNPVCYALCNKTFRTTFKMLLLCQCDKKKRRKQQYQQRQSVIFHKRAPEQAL
The nature of data set [7]: Compound was tested for inhibiting the entry of replication deffective HIV-1 (YU-2) in to […] cells. The format is functional, cell-based. As to conditions: Homo sapiens.
The nature of data set [8]: (§5) Compound was tested for the inhibition of HIV-1 RU 570 clinical isolate in PBMC cultures. The format is functional. As to conditions: Homo sapiens.
Data set [9] relates to Rattus norvegicus. The data set is described as follows: Area under curve value 6 hr after po administration in rat. The class given is ADME, organism-based. Set-up: time < 6 hr, route oral; concentration or dose not given beside the values. As to conditions: in vivo.
Data set [10] deals with T2, Muscarinic acetylcholine receptor M2 (Homo sapiens, UniProt P08172).
T2 sequence (P08172 whole entry): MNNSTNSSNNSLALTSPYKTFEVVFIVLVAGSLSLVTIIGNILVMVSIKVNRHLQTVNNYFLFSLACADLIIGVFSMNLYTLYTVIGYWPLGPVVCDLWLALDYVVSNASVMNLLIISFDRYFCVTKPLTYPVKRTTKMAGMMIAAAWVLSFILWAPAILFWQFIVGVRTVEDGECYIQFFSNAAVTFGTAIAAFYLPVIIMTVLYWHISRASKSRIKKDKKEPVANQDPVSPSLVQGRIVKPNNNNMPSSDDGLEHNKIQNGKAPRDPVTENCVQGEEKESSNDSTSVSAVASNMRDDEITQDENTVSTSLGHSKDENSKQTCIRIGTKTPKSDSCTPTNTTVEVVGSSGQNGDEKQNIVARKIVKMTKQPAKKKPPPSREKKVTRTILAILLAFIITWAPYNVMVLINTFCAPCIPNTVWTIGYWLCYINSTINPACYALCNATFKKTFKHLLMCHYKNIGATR
The data set is described as follows: Antagonistic activity against Muscarinic acetylcholine receptor M2. The class given is functional.

The nature of data set [11]: Area under curve value 24 hr after 2 mg/kg oral administration in monkeys. More on the design: time < 24 hr, dose 2 mg/kg, route oral. As to conditions: cercopithecidae, in vivo. The class given is ADME, organism-based.
The species entered for data set [12] is Homo sapiens. The data set is described as §1. The format is functional.
The nature of data set [13]: Bioavailability after administration of 2 mg/kg in rats. The format is ADME, organism-based. The settings on record: rat, in vivo, read-out: Bioavailabiility.
The species entered for data set [14] is Homo sapiens. The data set is described as §2. The format is functional.
In data set [15] the test system is Rattus norvegicus. Put plainly: Area under curve value 24 hr after 2 mg/kg oral administration in rats. The class given is ADME, organism-based. Set-up: time < 24 hr, dose 2 mg/kg, route oral. The settings on record: in vivo.
For data set [16], the species on record is Homo sapiens. The data set is described as §3. The format is functional.
For data set [17], the species on record is Homo sapiens. The description is as §4. The class given is functional.
The nature of data set [18]: Cmax 24 hr after 2 mg/kg oral administration in monkeys. As to conditions: cercopithecidae, in vivo. The class given is ADME, organism-based. Set-up: dose 2 mg/kg, route oral.
For data set [19], the system named is Rattus norvegicus. The data set is described as follows: Area under curve value 24 hr after 2 mg/kg iv administration in rats. As to conditions: in vivo. The class given is ADME, organism-based. More on the design: time < 24 hr, dose 2 mg/kg, route intravenous.
The species named for data set [20] is Homo sapiens. The data set is described as §5. The format is functional.
Data set [21] deals with C-C chemokine receptor type 5 (Homo sapiens, UniProt P51681). The data set is described as follows: Antagonistic activity against C-C chemokine receptor type 5. The format is functional.
Chain of C-C chemokine receptor type 5 (P51681 whole entry): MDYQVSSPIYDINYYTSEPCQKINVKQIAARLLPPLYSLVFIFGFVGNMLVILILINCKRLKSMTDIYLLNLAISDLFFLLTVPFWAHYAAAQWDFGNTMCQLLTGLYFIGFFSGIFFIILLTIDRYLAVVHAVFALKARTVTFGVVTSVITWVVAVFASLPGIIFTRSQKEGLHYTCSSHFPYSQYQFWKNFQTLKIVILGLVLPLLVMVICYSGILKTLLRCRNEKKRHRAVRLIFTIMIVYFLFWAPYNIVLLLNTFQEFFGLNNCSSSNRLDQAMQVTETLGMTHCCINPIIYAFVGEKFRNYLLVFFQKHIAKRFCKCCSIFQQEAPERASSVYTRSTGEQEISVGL
The nature of data set [22]: Cmax 24 hr after 2 mg/kg oral administration in rats. The format is ADME, organism-based. Set-up: dose 2 mg/kg, route oral. As to conditions: rat, in vivo.
Data set [23] is described as follows: Area under curve value 24 hr after 2 mg/kg iv administration in monkeys. More on the design: time < 24 hr, dose 2 mg/kg, route intravenous. The format is ADME, organism-based. The settings on record: cercopithecidae, in vivo.
The nature of data set [24]: Bioavailability in monkey (dose 2 mg/kg). The class given is ADME, organism-based. As to conditions: cercopithecidae, in vivo.
Data set [25] in a line: Half-life 24 hr after 2 mg/kg iv administration in rats. The class given is ADME, organism-based. More on the design: dose 2 mg/kg, route intravenous. As to conditions: rat, in vivo.
Data set [26] can be described thus: Half-life 24 hr after 2 mg/kg iv administration in monkeys. The format is ADME, organism-based. As to conditions: cercopithecidae, in vivo. Set-up: dose 2 mg/kg, route intravenous.
The nature of data set [27]: Half-life 24 hr after 10 mg/kg iv administration in rats. The class given is ADME, organism-based. As to conditions: rat, in vivo. More on the design: dose 10 mg/kg, route intravenous.
Data set [28] can be described thus: Bioavailability after administration of 10 mg/kg in rats. The class given is ADME, organism-based. The settings on record: rat, in vivo, read-out: Bioavailabiility.
A short description of data set [29]: Cmax 24 hr after 10 mg/kg oral administration in rats. The class given is ADME, organism-based. Set-up: dose 10 mg/kg, route oral. As to conditions: rat, in vivo.
Data set [30] concerns Rattus norvegicus. The data set is described as follows: Area under curve value 24 hr after 10 mg/kg iv administration in rats. More on the design: time < 24 hr, dose 10 mg/kg, route intravenous. The format is ADME, organism-based. The settings on record: in vivo.
Data set [31] deals with Rattus norvegicus. Put plainly: Area under curve value 24 hr after 10 mg/kg oral administration in rats. The format is ADME, organism-based. Set-up: time < 24 hr, dose 10 mg/kg, route oral. The settings on record: in vivo.

For the compound `Cc1ncnc(C)c1C(=O)N1CCC(C)(N2CCN([C@@H](C)c3ccc(C(F)(F)F)cc3)[C@@H](C)C2)CC1`, the IC90 in [1] is 13 nM; in [2], 31 nM; in data set [4] it was 19 nM; in data set [5], 40 nM; in [8], above 1000 nM. The figures for the Ki in [3] and in data set [6] were 575 nM and 716 nM, respectively. The compound also returned an IC50 in [7] of 0.39 nM. The same compound registered an AUC 0-6h in the data set with Rattus norvegicus [9] of 6.21 µg·h/mL.
For the compound `CCC[C@@H](c1ccc(C(F)(F)F)cc1)N1CCN(C2(C)CCN(C(=O)c3c(C)ncnc3C)CC2)C[C@@H]1C`, the Ki in data set [10] is 4760 nM; in [3], 6070 nM; in data set [6] it was above 5300 nM; in [21], 1.1 nM. Further, the AUC 0-24h was 1.76 µg·h/mL in data set [11], 3.27 µg·h/mL in the data set on Rattus norvegicus [15], 4.55 µg·h/mL in the data set on Rattus norvegicus [19] and 2.67 µg·h/mL in data set [23]. Further, the IC90 was determined as 0.09 nM in the data set listed under Homo sapiens [12]; 0.27 nM in the data set filed under Homo sapiens [14]; 0.03 nM in the data set filed under Homo sapiens [16]; 0.01 nM in the data set listed under Homo sapiens [17]; 0.43 nM in the data set filed under Homo sapiens [20]. For the same compound, the bioavailability is 72% in data set [13] and 66% in [24]. The results for the Cmax in data set [18] and in data set [22] were 0.24 µg/mL and 0.311 µg/mL, respectively. In addition, the IC50 in [7] worked out at 0.35 nM. In addition, the half-life in data set [25] was 15.5 h; in data set [26], 6.3 h. In addition, in the data set with Rattus norvegicus [9], the AUC 0-6h stood at 4.6 µg·h/mL.
As for `COC[C@@H](c1ccc(C(F)(F)F)cc1)N1CCN(C2(C)CCN(C(=O)c3c(C)ncnc3C)CC2)C[C@@H]1C` [VICRIVIROC], the Ki in data set [10] and in [3] was above 10000 nM in each case. Besides, the AUC 0-24h in data set [11] is 1.99 µg·h/mL; with Rattus norvegicus [30], 21 µg·h/mL; in [23] it was 2.24 µg·h/mL; with Rattus norvegicus [31] it was 21 µg·h/mL. The IC90 in data set [1] turned out to be 1.8 nM; in [2], 4.9 nM; in [4], 2.8 nM; in data set [5], 3.3 nM; in data set [8], 10 nM. For the same compound, the half-life in [27] was 8 h; in data set [26], 3.5 h. Moreover, the bioavailability in data set [28] worked out at 100%; in [24], 89%. The results for the Cmax in data set [29] and in data set [18] were 2.3 µg/mL and 0.67 µg/mL, respectively. The compound further displayed an IC50 in [7] of 0.46 nM. Further, the AUC 0-6h with Rattus norvegicus [9] was 6.9 µg·h/mL.
For the compound `Cc1ncnc(C)c1C(=O)N1CCC(C)(N2CCN([C@@H](CC3CC3)c3ccc(C(F)(F)F)cc3)[C@@H](C)C2)CC1`, the values for the inhibition constant Ki in data set [10], in data set [3] and in [21] were 3510 nM, 1890 nM and 1.6 nM, respectively. In data set [7], this compound returned a half-maximal inhibitory concentration (IC50) of 0.8 nM. The compound also returned an AUC 0-6h in the data set with Rattus norvegicus [9] of 5.9 µg·h/mL.
As to `CC[C@@H](c1ccc(C(F)(F)F)cc1)N1CCN(C2(C)CCN(C(=O)c3c(C)ncnc3C)CC2)C[C@@H]1C`, the Ki in [10] was 4750 nM; in [3] it was 3900 nM; in data set [6] it was 9090 nM; in data set [21] it was 5.2 nM. The IC90 in [1] was found to be 16 nM; in [2], 18 nM; in [4] it was 21 nM; in data set [5], 19 nM; in data set [8], 1000 nM. The same compound gave an IC50 in data set [7] of 0.18 nM. The AUC 0-6h in the data set on Rattus norvegicus [9] is 7.31 µg·h/mL.
For the compound `Cc1ncnc(C)c1C(=O)N1CCC(C)(N2CCN([C@@H](Cc3ccccc3)c3ccc(C(F)(F)F)cc3)[C@@H](C)C2)CC1`, the Ki is above 5700 nM in data set [10], above 3900 nM in [3], above 5300 nM in data set [6] and 1.4 nM in data set [21]. Besides, the IC90 was determined as 0.6 nM in data set [1]; 0.25 nM in data set [2]; 0.04 nM in data set [4]; 0.19 nM in data set [5]; 4 nM in [8]. For the same compound, inhibition in [7] was half-maximal at 0.13 nM (IC50). For the same compound, the AUC 0-6h in the data set on Rattus norvegicus [9] was found to be 2.03 µg·h/mL.
Turning to `Cc1ncnc(C)c1C(=O)N1CCC(C)(N2CCN([C@@H](CCC(F)(F)F)c3ccc(C(F)(F)F)cc3)[C@@H](C)C2)CC1`, the Ki in data set [10] was above 6700 nM; in data set [3] it was above 3700 nM. This compound showed an IC50 in data set [7] of 1.44 nM. This compound returned an AUC 0-6h in the data set with Rattus norvegicus [9] of 4.6 µg·h/mL.
Regarding `CCO/N=C(\c1ccc(Br)cc1)C1CCN(C2(C)CCN(C(=O)c3c(C)cc[n+]([O-])c3C)CC2)CC1` [ANCRIVIROC], the IC90 in [1] is 43 nM; in data set [2] it was 10 nM; in data set [4], 25 nM; in [5], 19 nM; in data set [8], 400 nM.
